According to PMC3928307, “Long-Term Activation upon Brief Exposure to Xanomleline Is Unique to M1 and M4 Subtypes of Muscarinic Acetylcholine Receptors” (PLoS ONE, 2014):
pEC50: −log10 of the molar value.

How the values were obtained:
[1] = target: T1, hM2 muscarinic receptor (Homo sapiens, UniProt P08172); assay: Fura-2 intracellular calcium microfluorometry, CHO cells; format: cell-based; conditions: read-out: oxotremorine / pEC50 (converted)
T1 construct: gene CHRM2; full-length receptor stably expressed in CHO cells; human G16 transiently co-transfected for calcium assay
T1 sequence (P08172 1-466): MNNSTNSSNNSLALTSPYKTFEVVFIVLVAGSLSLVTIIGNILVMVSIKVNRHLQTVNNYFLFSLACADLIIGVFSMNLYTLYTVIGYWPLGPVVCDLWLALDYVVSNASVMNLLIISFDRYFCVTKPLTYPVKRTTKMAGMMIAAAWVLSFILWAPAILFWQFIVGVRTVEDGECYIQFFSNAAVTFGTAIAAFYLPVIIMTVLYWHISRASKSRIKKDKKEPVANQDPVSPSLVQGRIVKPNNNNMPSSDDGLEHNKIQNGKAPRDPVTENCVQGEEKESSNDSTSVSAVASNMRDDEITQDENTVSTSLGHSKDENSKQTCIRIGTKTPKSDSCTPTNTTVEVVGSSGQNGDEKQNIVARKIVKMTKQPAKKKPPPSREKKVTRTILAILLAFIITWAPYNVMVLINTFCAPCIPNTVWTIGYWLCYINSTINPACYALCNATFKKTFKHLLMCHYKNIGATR
Text: Fura-2 intracellular calcium microfluorometry, CHO cells on hM2 muscarinic receptor

[2] = target: T2, hM5 muscarinic receptor (Homo sapiens, UniProt P08912); assay: as above; format: cell-based; conditions: read-out: oxotremorine / pEC50 (converted)
T2 construct: gene CHRM5; full-length receptor stably expressed in CHO cells (Missouri S&T cDNA Resource Center)
T2 sequence (P08912 1-532): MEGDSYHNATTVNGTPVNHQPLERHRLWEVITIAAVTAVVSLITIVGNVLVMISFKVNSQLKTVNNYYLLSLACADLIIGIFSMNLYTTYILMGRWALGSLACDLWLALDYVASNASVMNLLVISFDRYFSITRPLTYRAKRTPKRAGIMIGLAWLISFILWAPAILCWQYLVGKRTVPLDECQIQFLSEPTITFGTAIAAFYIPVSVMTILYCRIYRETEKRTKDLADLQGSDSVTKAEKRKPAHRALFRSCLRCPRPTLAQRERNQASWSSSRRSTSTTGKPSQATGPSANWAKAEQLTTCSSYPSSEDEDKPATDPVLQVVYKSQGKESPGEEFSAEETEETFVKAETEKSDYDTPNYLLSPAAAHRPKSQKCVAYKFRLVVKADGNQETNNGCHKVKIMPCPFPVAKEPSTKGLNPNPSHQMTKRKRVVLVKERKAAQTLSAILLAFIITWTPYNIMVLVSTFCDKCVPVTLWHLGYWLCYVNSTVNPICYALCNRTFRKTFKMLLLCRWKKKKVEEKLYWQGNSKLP
Text: Fura-2 intracellular calcium microfluorometry, CHO cells on hM5 muscarinic receptor

[3] = target: T3, hM1 muscarinic receptor (Homo sapiens, UniProt P11229); assay: cell-based
T3 construct: gene CHRM1
T3 sequence (P11229 1-460): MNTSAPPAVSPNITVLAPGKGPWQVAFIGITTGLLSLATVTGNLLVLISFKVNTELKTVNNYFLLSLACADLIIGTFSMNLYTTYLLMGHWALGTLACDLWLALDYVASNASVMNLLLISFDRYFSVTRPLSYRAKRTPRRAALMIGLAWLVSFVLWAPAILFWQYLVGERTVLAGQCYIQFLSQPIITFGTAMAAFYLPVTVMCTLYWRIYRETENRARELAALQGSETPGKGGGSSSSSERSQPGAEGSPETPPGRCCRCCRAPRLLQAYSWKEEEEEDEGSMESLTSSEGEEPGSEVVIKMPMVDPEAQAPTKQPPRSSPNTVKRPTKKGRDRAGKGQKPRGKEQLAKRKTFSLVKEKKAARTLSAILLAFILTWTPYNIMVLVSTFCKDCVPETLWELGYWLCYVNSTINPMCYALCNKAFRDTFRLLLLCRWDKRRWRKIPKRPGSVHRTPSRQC
Text: Fura-2 intracellular calcium microfluorometry, CHO cells on hM1 muscarinic receptor

[4] = target: T4, hM3 muscarinic receptor (Homo sapiens, UniProt P20309); assay: Fura-2 intracellular calcium microfluorometry, CHO cells; format: cell-based; conditions: read-out: oxotremorine / pEC50 (converted)
T4 construct: gene CHRM3; full-length receptor stably expressed in CHO cells (Missouri S&T cDNA Resource Center)
T4 sequence (P20309 whole entry): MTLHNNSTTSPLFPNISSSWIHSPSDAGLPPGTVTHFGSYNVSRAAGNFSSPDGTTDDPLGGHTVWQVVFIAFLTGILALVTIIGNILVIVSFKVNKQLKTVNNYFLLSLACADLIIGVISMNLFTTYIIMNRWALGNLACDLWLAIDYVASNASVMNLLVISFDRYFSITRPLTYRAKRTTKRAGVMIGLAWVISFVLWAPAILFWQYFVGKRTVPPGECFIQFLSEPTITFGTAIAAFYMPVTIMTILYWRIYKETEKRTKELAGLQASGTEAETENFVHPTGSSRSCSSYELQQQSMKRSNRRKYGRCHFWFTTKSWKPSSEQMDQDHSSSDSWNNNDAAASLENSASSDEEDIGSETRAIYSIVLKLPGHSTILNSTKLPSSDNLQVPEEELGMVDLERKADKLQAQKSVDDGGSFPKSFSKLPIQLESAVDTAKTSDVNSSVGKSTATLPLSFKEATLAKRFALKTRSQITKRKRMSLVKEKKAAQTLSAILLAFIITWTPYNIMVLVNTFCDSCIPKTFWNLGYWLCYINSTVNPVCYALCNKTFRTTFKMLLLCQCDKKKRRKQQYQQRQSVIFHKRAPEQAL
Text: Fura-2 intracellular calcium microfluorometry, CHO cells on hM3 muscarinic receptor

[5] = target: T5, hM4 muscarinic receptor (Homo sapiens, UniProt P08173); assay: cell-based
T5 construct: gene CHRM4
T5 sequence (P08173 1-479): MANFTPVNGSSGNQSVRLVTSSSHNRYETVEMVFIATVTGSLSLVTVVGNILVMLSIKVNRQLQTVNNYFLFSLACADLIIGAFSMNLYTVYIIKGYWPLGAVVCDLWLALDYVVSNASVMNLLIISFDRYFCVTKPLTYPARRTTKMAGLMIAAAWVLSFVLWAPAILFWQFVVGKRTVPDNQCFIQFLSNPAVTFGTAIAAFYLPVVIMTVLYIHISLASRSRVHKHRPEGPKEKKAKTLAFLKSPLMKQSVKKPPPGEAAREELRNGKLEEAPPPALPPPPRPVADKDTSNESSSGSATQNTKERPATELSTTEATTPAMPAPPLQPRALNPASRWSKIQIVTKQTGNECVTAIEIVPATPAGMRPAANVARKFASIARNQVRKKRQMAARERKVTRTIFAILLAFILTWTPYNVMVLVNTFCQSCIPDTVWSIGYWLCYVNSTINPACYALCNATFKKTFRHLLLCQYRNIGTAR

O=C1CCCN1CC#CCN1CCCC1 [oxotremorine]
EC50 [1]: 64.6 nM
EC50 [2]: 51.3 nM
pEC50 [3]: 7.33
EC50 [4]: 46.8 nM
pEC50 [5]: 7.17
